Measurements taken from article PMC7756392, “Syntheses of Thailandepsin B Pseudo‐Natural Products: Access to New Highly Potent HDAC Inhibitors via Late‐Stage Modification” (Chemistry (Weinheim an Der Bergstrasse, Germany), 2020).

Columns and labels:
human recombinant HDAC1 = target: T1, human recombinant HDAC1 (Homo sapiens, UniProt Q13547); experiment: ZMAL trypsin assay, HDAC1; type: biochemical; conditions: for inhibition at 10 µM: ZMAL trypsin assay
T1 construct: purchased BPS Bioscience 50051
T1 sequence (Q13547 whole entry): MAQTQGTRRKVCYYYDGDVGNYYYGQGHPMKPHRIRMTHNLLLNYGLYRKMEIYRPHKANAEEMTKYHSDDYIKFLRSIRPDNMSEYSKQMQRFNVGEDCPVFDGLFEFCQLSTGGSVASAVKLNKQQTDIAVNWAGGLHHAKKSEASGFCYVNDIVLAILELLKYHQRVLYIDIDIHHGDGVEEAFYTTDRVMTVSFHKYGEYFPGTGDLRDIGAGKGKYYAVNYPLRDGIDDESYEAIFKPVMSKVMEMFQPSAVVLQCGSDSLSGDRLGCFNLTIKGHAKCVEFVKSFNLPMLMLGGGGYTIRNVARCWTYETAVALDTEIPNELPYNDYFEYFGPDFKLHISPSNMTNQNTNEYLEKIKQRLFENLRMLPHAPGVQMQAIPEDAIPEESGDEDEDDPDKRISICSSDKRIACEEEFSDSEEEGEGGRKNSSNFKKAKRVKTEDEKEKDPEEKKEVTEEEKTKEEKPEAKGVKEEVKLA
Procedure: (§1) [28] Assays for HDAC1/6 were prepared according to: B. Heltweg , J. Trapp , M. Jung , Methods 2005, 36, 332–337; assays for HDAC8 were prepared according to: J. Senger , J. Melesina , M. Marek , C. Romier , I. Oehme , O. Witt , W. Sippl , M. Jung , J. Med. Chem. 2016, 59, 1545–1555. […]
(§2) hHDAC1/6: Activity assays were performed in OptiPlateTM-96 F black microplates (PerkinElmer). Commercial available enzymes (human recombinant HDAC1; BPS Bioscience, catalog no. 50051 and human recombinant HDAC6; BPS Bioscience, catalog no. 50006) were used. Total assay volume of 60 µL contains 42 µl of assay buffer (50 mM Tris -HCl, pH 8.0, 137 mM NaCl, 2.7 mM KCl, 1 mM MgCl2, 0.2 mM TCEP and 1 mg/mL bovine serum albumin), 10 µL of enzyme solution in assay buffer, 3 µL of increasing concentrations of inhibitors in DMSO and 5 μL of the fluorogenic substrate ZMAL (Z -(Ac)Lys-AMC) (126 μM). After incubation (90 min, 37 °C) 60 µL of stop solution, containing 5 μL Trichostatin A (TSA) (33 μM) and 10 μL trypsin (6 mg/mL) in trypsin buffer (Tris-HCl 50 mM, pH 8.0, NaCl 100 mM), were added. […]

human recombinant HDAC6 = target: T2, human recombinant HDAC6 (Homo sapiens, UniProt Q9UBN7); experiment: ZMAL trypsin assay, HDAC6; type: biochemical; conditions: for inhibition at 10 µM: ZMAL trypsin assay
T2 construct: purchased BPS Bioscience 50006
T2 sequence (Q9UBN7 1-1215): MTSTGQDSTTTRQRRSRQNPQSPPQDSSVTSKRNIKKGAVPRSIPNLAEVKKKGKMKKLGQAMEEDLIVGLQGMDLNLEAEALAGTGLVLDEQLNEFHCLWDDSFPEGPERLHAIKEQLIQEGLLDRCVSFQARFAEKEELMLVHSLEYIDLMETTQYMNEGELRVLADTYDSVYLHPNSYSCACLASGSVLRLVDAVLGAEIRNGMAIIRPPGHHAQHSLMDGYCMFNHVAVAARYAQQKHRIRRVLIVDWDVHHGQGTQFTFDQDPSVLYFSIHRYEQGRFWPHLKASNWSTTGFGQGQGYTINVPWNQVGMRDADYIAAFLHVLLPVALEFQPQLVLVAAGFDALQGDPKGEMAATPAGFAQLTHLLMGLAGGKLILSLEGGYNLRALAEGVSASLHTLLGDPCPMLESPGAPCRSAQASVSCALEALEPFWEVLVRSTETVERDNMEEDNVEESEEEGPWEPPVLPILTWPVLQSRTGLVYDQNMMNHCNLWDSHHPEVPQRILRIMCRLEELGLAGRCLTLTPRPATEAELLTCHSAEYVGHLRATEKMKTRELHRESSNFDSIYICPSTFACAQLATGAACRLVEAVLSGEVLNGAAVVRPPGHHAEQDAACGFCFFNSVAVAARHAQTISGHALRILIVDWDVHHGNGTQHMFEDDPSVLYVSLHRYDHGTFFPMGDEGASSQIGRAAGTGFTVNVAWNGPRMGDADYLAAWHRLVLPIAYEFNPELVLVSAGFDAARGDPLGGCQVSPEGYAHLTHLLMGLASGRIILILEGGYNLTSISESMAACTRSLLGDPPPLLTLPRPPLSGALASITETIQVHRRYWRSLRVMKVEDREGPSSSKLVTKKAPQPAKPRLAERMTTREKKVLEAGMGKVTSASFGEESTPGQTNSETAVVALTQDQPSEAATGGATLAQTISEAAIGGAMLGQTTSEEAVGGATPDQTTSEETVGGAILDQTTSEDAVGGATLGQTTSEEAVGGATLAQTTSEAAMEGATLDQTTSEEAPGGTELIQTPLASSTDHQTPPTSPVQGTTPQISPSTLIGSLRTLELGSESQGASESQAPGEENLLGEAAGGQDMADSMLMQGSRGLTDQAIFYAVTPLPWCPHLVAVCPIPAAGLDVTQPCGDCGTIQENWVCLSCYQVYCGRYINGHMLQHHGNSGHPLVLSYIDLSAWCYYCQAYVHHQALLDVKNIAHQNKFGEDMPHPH
Procedure: as §1, §2

Row | SMILES | HDAC1 inhibition (in words) (human recombinant HDAC1) | inhibition at 10 µM (human recombinant HDAC1) [%] | HDAC6 inhibition (in words) (human recombinant HDAC6) | inhibition at 10 µM (human recombinant HDAC6) [%]
1 | C=C[C@@H]1CC(=O)N[C@H](CCCC)C(=O)N[C@H](C)C(=O)N[C@H]([C@@H](C)CC)[C@@H](O[Si](C)(C)C(C)(C)C)CC(=O)O1 [compound 9] | did not show inhibition | < 5 | did not show inhibition | < 5
2 | CCCC[C@H]1NC(=O)C[C@@H](/C=C/CCC(=O)N(OC(=O)OC(C)(C)C)C(=O)OC(C)(C)C)OC(=O)C[C@H](O[Si](C)(C)C(C)(C)C)[C@@H]([C@@H](C)CC)NC(=O)[C@@H](C)NC1=O [compound 35] | not active | < 5 | not active | < 5
3 | C=C[C@@H]1CC(=O)N[C@H](CCCC)C(=O)N[C@H](C)C(=O)N[C@H]([C@@H](C)CC)[C@@H](O)CC(=O)O1 [compound 28] | did not show inhibition | < 5 | did not show inhibition | < 5
